Test results as given in patent US20030211941A1, “Methods for identifying signalling molecules” (priority 2002, published 2003).
Non-standard residues stand in square brackets, D forms with d. Hyp = O=C(O)[C@@H]1C[C@@H](O)CN1

What was measured:
[1] = test system: tobacco proteinase inhibitor protein; test: Proteinase inhibitor inducing assay (tobacco leaves; supplied to young tobacco plants through cut stems); format: in vivo; conditions: for Induction of tobacco proteinase inhibitor protein (in words): tobacco plants; for Concentrations for 1/2 maximal activity in Proteinase Inhibitor Inducing Assays (Tobacco Leaves): young tobacco plants, supplied through cut stems
Experimental: The purified polypeptides were sequenced and named tobacco systemin I (peak I activity) (SEQ ID NO: 1) and tobacco systemin II (peak II activity) (SEQ ID NO: 2). Both are polypeptides of 18 amino acids and both are glycosylated. Using mild acid hydrolysis, the carbohydrates were removed, and the masses of both tobacco systemin I (SEQ ID NO: 1) and tobacco systemin II (SEQ ID NO: 2) were analyzed before and after acid hydrolysis using a MALDI-MS. The amino acid sequence of tobacco systemin I is NH2-RGANLPXXSXASSXXSKE-COO. (SEQ ID NO:1). The amino acid sequence of tobacco systemin II is NH2-NRKPLSXXSXKPADGQRP-COO (SEQ ID NO:2). The one letter abbreviation “X” represents hydroxyproline. The masses after acid hydrolysis exactly matched the masses obtained by sequence analysis. […] The potency of the tobacco systemins was similar to that found for tomato systemin (disclosed in U.S. Pat. No. 5,378,819) in its alkalinization response in tomato cell suspension cultures and in inducing proteinase inhibitors in leaves of excised tomato plants (Table 1).

[2] = test system: tobacco suspension cell cultures; test: Alkalinization assay (tobacco cell suspension cultures); format: cell-based, N. tabacum; conditions: for EC50: 2 ml tobacco suspension cells, read-out: Concentrations for 1/2 maximal activity in Alkalinization Assays (Tobacco Cell Suspension Cultures); for Alkalinization of tobacco suspension cell cultures (in words): tobacco suspension cells
Experimental: Column fractions were assayed using suspension-cultured tobacco cells as follows. An aliquot of cells (usually 1 to 2 ml) were placed in the wells of culture plates, then aliquots from each column fraction (1 to 10 μL) were placed in each well of the culture plates. The cells in the plates were agitated by a circular motion of the rotary shaker on which they sat. The pH was then monitored over time and the change in pH at various times was plotted versus fraction number.
The two active peaks were solubilized in 1 ml 0.1% TFA each and injected into a narrow bore reversed-phase C18 column (Vydac, Column 218TP52, 2.1 by 250 mm, 5 μm beads, 300 angstrom pores). Solvent A consisted of 0.1% TFA in water, and solvent B was 0.05% TFA in methanol. Samples were injected in solvent A, and after 2 minutes, a 90 minute gradient from 0% solvent B to 30% solvent B was applied. The flow rate was 0.25 ml/min and the fractions (0.25 ml) were monitored at 214 nm and 2 μl were assayed for their alkalinization activity in tobacco cell cultures. The elution and alkalinization profiles for peak I activity are shown in FIG. 3A and FIG. 3B, respectively. The elution and alkalinization profile for peak II activity are shown in FIG. 4A and FIG. 4B, respectively.
The cells can be maintained in 125 mL Ehrlenmeyer flasks on an orbital shaker (160 rpm) under constant light. Three milliliters of cells are subcultured every seven days into 45 mL of sterile media (unbuffered, pH 5.5 adjusted with 0.1 M KOH) containing 3% sucrose, 4.3 g/L Murashige and Skoog salt mixture, 5 mg/L 1-napthylacetic acid, 2 mg/L 6-benzylaminopurine, 110 mg/L Nitsch and Nitsch vitamin powder, 1 mg/L thiamine, 100 mg/L myo-inositol and 1 mM EDTA. Cells can be used for alkalinization assays from 4 to 8 days after subculturing.

[3] = test system: MAP kinase protein; test: MAP kinase assay in tobacco leaf extracts; format: biochemical
Text: The ability of tobacco systemin I (SEQ ID NO: 1), tobacco systemin II (SEQ ID NO: 2) and the 5 kDa polypeptide, described in Example 2 herein, to stimulate the phosphorylation of a MAP kinase protein in tobacco leaf extracts was investigated. The MAP kinase assay utilized was essentially as described in Stratmann, J. W. and Ryan, C. A., Proc. Nat'l. Acad. Sci. U.S.A. 94:11085-11089 (1997), which publication is incorporated herein by reference.

Row | Substance | Induction of tobacco proteinase inhibitor protein (in words) [1] | Concentrations for 1/2 maximal activity in Proteinase Inhibitor Inducing Assays (Tobacco Leaves) [1] | EC50 [2] | Alkalinization of tobacco suspension cell cultures (in words) [2] | MAP kinase stimulating activity (in words) [3]
1 | 18 amino acid glycosylated polypeptide from tobacco, NH2-NRKPLSXXSXKPADGQRP-COO (X = hydroxyproline), 6 pentose units (H-NRKPLS[Hyp][Hyp]S[Hyp]KPADGQRP-OH; also: 6 pentose units glycosylation, places not given here) [Tob Sys II, tobacco systemin II] | active at low picomole levels | ˜200 fmol/plant | ~250 pM | active at low picomole levels | possess MAP kinase stimulating activity
2 | 18 amino acid glycosylated polypeptide from tobacco, NH2-RGANLPXXSXASSXXSKE-COO (X = hydroxyproline), 9 pentose units (H-RGANLP[Hyp][Hyp]S[Hyp]ASS[Hyp][Hyp]SKE-OH; also: 9 pentose units glycosylation, places not given here) [Tob Sys I, tobacco systemin I] | active at low picomole levels | ˜200 fmol/plant | ~250 pM | active at low picomole levels | 
3 | tomato systemin (AVQSKPPSKRDPPKMQTD; Systemin; UniProt P27058 179-196, looked up) [tomato systemin disclosed in U.S. Pat. No. 5,378,819, reference compound] |  |  |  | does not cause alkalinization | 
